Measurements taken from paper PMC10945559, “Forgotten Natural Products: Semisynthetic Development of Blasticidin S As an Antibiotic Lead” (ACS Medicinal Chemistry Letters, 2024).
Values after ≈ are worked out from the molar mass of the structure shown. Read-outs that look alike come from different tables or passages of the source.

Experiments:
Pseudomonas aeruginosa = test: Broth microdilution antibacterial assay; assay type: cell-based; details: for Selectivity index (CC50/IC50): MRC-5 CC50 / P. aeruginosa IC50; for IC50 / MIC: Pseudomonas aeruginosa; for IC50: average of two biological replicates ± S.D., read-out: IC50
Protocol: (§1) Antibacterial Assay Procedure
(§2) Broth Microdilution Assays
(§3) Media and solutions were autoclaved or sterile filtered prior to use and manipulations were carried out in a laminar flow hood. Antibacterial testing was performed in polypropylene 96 -well flat bottom plates. The minimal inhibitory concentration of blasticidin S ( 1) hydrochloride, P10 (2), and derivatives 15–22 were assessed against Staphylococcus aureus ΔNorA, S. aureus 8810, methicillin-resistant S. aureus (MRSA) ATCC 43300, Enterococcus faecalis ATCC 29212, vancomycin-resistant Enterococcus, Klebsiella pneumoniae ATCC 29665, Pseudomonas aeruginosa, and Acinetobacter baumannii ATCC 17978 using serial dilutions. Doxycycline (Gold Bio) as a positive control and the vehicle as a negative control. Stock solutions of each compound were prepared at 5.12 mg/mL in 50% DMSO/water and serially diluted in 50% DMSO/water to create master plates. From the master plates, 10 μL of each dilution was applied to test plates using a Bravo automated liquid transfer system (Agilent). Bacteria previously grown overnight (37 °C, 120 – 200 RPM), in LB broth were diluted to an OD600 of 0.0 5 in cation-adjusted Mueller-Hinton broth, grown to an OD600 of ~0.5, and diluted to an OD600 of 0.004 in cation-adjusted Mueller-Hinton broth. These diluted cultures were applied to the test plates (190 μL per test well) resulting in final concentrations of the test compounds of 256–2 μg/mL. Growth controls (wells with inoculated media but no vehicle or test compounds) were included to assess any potential toxicity from the vehicle. The plates were incubated at 37 °C for 16–18 h, except for VRE and E. faecalis, which were incubated at 37 °C for 24 h. Inhibition was determined by measuring the optical density at 600 nm (OD600) with a Cytation 3 plate reader (BioTek). The optical density measurements were normalized to the positive and negative controls and the vehicle and growth controls were compared and found to be indistinguishable, indicating no toxicity from the vehicle used. The MIC was the lowest concentration that inhibited >90% of growth. Two biological replicates were performed in duplicate. MIC values are reported […]
(§4) as a range from biological replicates. Inhibition curves were generated using Prism (GraphPad).
(§5) The IC50 values reported in Table 2 are the average of the two biological replicates ± standard […]
(§6) Cytotoxicity Assay Procedure
(§7) Human lung fibroblast cells, MRC -5 (CCL-171), were cultured at 37℃ with 5% CO2 and were plated at 5000 cells/well in a 96 -well plate. Compounds 1, 2, and 15-22 were initially prepared at concentrations of 5.12 mg/mL in a vehicle of 50% DMSO. Dilutions of the compounds (4 – 512 μg/mL) were then prepared in growth medium containing Dulbecco’s modified Eagle’s medium (DMEM) with high glucose, L -glutamine, and sodium pyruvate supplemented with 10% fetal bovine serum (FBS), 1% non -essential amino acids, and 0.1% gentamicin sulfate, and 25mM HEPES. The vehicle (50% DMSO) was also prepared via the sa me dilution series to serve as a control. Growth media was removed from the cells and replaced with the same volume of each compound dilution. Cells were incubated for 24 h , after which CellTiter 96® AQueous One Solution Reagent was added to each well as recommended by the manufacturer’s protocol (Promega CellTiter 96 AQueous One Solution Cell Proliferation Assay) and further incubated for 4 h. After incubation, absorbance was measured at 490 nm on an Infinite M plex multimode microplate reader with i -control Tecan software. Viability was calculated by subtracting media only absorbance values and normalizing to the vehicle control at each concentration. The presented data is one assay performed in triplicate that is representative of multiple trials. Data for the 256 and 512 μg/mL concentrations were removed from analysis due to vehicle toxicity […]
(§8) CC50 concentrations were determined via the ED50 Plus v1.0 software (https://archive.org/details/ed50v10_zip).

[1] = tested on: vancomycin-resistant Enterococcus (VRE); test: Broth microdilution antibacterial assay; assay type: cell-based; details: for MIC / IC50: Enterococcus; for IC50: average of two biological replicates ± S.D., read-out: IC50; for Selectivity index (CC50/IC50): MRC-5 CC50 / VRE IC50
Protocol: as §1, §2, §3, §4, §5, §6, §7, §8

[2] = tested on: Klebsiella pneumoniae ATCC 29665; test: Broth microdilution antibacterial assay; assay type: cell-based; details: for IC50 / MIC: Klebsiella pneumoniae, ATCC29665, K. pneumoniae; for IC50: average of two biological replicates ± S.D., read-out: IC50; for MIC: lowest concentration inhibiting >90% of growth, range from biological replicates, read-out: MIC; for Selectivity index (CC50/IC50): MRC-5 CC50 / K. pneumoniae IC50
Protocol: as §1, §2, §3, §4, §5, §6, §7, §8

[3] = tested on: Enterococcus faecalis ATCC 29212; test: Broth microdilution antibacterial assay; assay type: cell-based; details: for MIC / IC50: Enterococcus faecalis, ATCC29212; for IC50: average of two biological replicates ± S.D. (18: one biological replicate), read-out: IC50; for Selectivity index (CC50/IC50): MRC-5 CC50 / E. faecalis IC50
Protocol: as §1, §2, §3, §4, §5, §6, §7, §8

[4] = tested on: Staphylococcus aureus ΔNorA; test: Broth microdilution antibacterial assay; assay type: cell-based; details: for Selectivity index (CC50/IC50): MRC-5 CC50 / S. aureus ΔNorA IC50; for IC50 / MIC: Staphylococcus aureus
Protocol: as §1, §2, §3, §4, §5, §6, §7, §8

[5] = tested on: Acinetobacter baumannii ATCC 17978; test: Broth microdilution antibacterial assay; assay type: cell-based; details: for IC50 / MIC: Acinetobacter baumannii, ATCC17978, A. baumannii; for IC50: average of two biological replicates ± S.D., read-out: IC50; for MIC: lowest concentration inhibiting >90% of growth, range from biological replicates, read-out: MIC; for Selectivity index (CC50/IC50): MRC-5 CC50 / A. baumannii IC50
Protocol: as §1, §2, §3, §4, §5, §6, §7, §8

[6] = tested on: methicillin-resistant S. aureus (MRSA) ATCC 43300; test: Broth microdilution antibacterial assay; assay type: cell-based, Staphylococcus aureus; details: for Selectivity index (CC50/IC50): MRC-5 CC50 / MRSA IC50; for IC50 / MIC: Staphylococcus aureus; for IC50: average of two biological replicates ± S.D., read-out: IC50
Protocol: as §1, §2, §3, §4, §5, §6, §7, §8

S. aureus 8810 = test: Broth microdilution antibacterial assay; assay type: cell-based, Staphylococcus aureus; details: for Selectivity index (CC50/IC50): MRC-5 CC50 / S. aureus IC50; for IC50 / MIC: Staphylococcus aureus, 8810; for IC50: average of two biological replicates ± S.D., read-out: IC50
Protocol: as §1, §2, §3, §4, §5, §6, §7, §8

in vitro = assay type: cell-based, human; details: human; MRC-5 (lung fibroblast); 24 h; one biological replicate (n = 3); read-out: CC50 for human cells
Protocol: as §4, §5, §6, §7, §8
Figure S41. The effect of compounds on cell viability. The lines represent non -linear regression curves, and error bars represent means ± […]
SD (n=3). […]

[7] = P. aeruginosa, lowest concentration inhibiting >90% of growth, range from biological replicates, read-out: MIC
[8] = VRE, average MIC, Table S3, read-out: Average Activity against VRE
[9] = VRE, 24 h, lowest concentration inhibiting >90% of growth, range from biological replicates, read-out: MIC
[10] = E. faecalis, 24 h, lowest concentration inhibiting >90% of growth, range from biological replicates, read-out: MIC
[11] = average MIC, Table S3, read-out: Average Activity against E. faecalis
[12] = MRSA, lowest concentration inhibiting >90% of growth, range from biological replicates, read-out: MIC
[13] = average MIC, Table S3, read-out: Average Activity against MRSA
[14] = S. aureus, lowest concentration inhibiting >90% of growth, range from biological replicates, read-out: MIC
[15] = average MIC, Table S3, read-out: Average Activity against S. aureus

| SMILES | Selectivity index (CC50/IC50) (Pseudomonas aeruginosa) | IC50 (Pseudomonas aeruginosa; P. aeruginosa) | MIC [1, 8] | MIC [1, 9] | IC50 ([1]; VRE) | Selectivity index (CC50/IC50) [1] | IC50 [2] | MIC [2] | Selectivity index (CC50/IC50) [2] | MIC [3, 10] | IC50 ([3]; E. faecalis) | MIC [3, 11] | Selectivity index (CC50/IC50) [3] | Selectivity index (CC50/IC50) [4] | IC50 [4] | MIC [4] | IC50 [5] | MIC [5] | Selectivity index (CC50/IC50) [5] | Selectivity index (CC50/IC50) [6] | also measured |
| --- | --- | --- | --- | --- | --- | --- | --- | --- | --- | --- | --- | --- | --- | --- | --- | --- | --- | --- | --- | --- | --- |
| C#CCNC(=O)[C@H]1O[C@@H](n2ccc(N)nc2=O)C=C[C@@H]1NC(=O)C[C@@H](N)CCN(C)C(=N)N [Compound 19] | 2.1 | 16.1 ± 0.9 µg/mL (≈ 35 µM) | 64 µg/mL (≈ 139 µM) | 64 µg/mL (≈ 139 µM) | 21.1 ± 4.8 µg/mL (≈ 45.9 µM) | 1.6 | 40.4 ± 6.2 µg/mL (≈ 87.9 µM) | 128 µg/mL (≈ 279 µM) | 0.8 | 16 to 32 µg/mL (≈ 34.8 to 69.6 µM) | 7.6 ± 1.5 µg/mL (≈ 16.5 µM) | 16 µg/mL (≈ 34.8 µM) | 4.4 | 2.0 | 16.2 ± 0.9 µg/mL (≈ 35.3 µM) | 64 to 128 µg/mL (≈ 139 to 279 µM) | 21.1 ± 3.9 µg/mL (≈ 45.9 µM) | 128 µg/mL (≈ 279 µM) | 1.6 | 4.8 | MIC (Pseudomonas aeruginosa; [7]): 64 µg/mL (≈ 139 µM); IC50 ([6]; MRSA): 6.9 ± 1.2 µg/mL (≈ 15 µM); MIC [6, 12]: 16 to 32 µg/mL (≈ 34.8 to 69.6 µM); MIC [6, 13]: 24 µg/mL (≈ 52.2 µM); Selectivity index (CC50/IC50) (S. aureus 8810): 9.2; IC50 (S. aureus 8810; S. aureus): 3.6 ± 0.3 µg/mL (≈ 7.83 µM); MIC (S. aureus 8810; [14]): 32 µg/mL (≈ 69.6 µM); MIC (S. aureus 8810; [15]): 32 µg/mL (≈ 69.6 µM); CC50 at 24 h (in vitro): 33.1 µg/mL (≈ 72 µM) |
| CNC(=O)[C@H]1O[C@@H](n2ccc(N)nc2=O)C=C[C@@H]1NC(=O)C[C@@H](N)CCN(C)C(=N)N [Compound 15, Methyl amide] | 2.6 | 20.2 ± 3.4 µg/mL (≈ 46.4 µM) | 32 µg/mL (≈ 73.5 µM) | 32 µg/mL (≈ 73.5 µM) | 13.5 ± 3.6 µg/mL (≈ 31 µM) | 3.9 | 26.4 ± 4.1 µg/mL (≈ 60.6 µM) | 64 µg/mL (≈ 147 µM) | 2.0 | 16 to 32 µg/mL (≈ 36.7 to 73.5 µM) | 13.2 ± 3.6 µg/mL (≈ 30.3 µM) | 32 µg/mL (≈ 73.5 µM) | 4.0 | 2.5 | 21.1 ± 0.4 µg/mL (≈ 48.5 µM) | 128 µg/mL (≈ 294 µM) | 18.3 ± 5.3 µg/mL (≈ 42 µM) | 64 µg/mL (≈ 147 µM) | 2.9 | 4.0 | MIC (Pseudomonas aeruginosa): 64 to 128 µg/mL (≈ 147 to 294 µM); IC50 ([6]; MRSA): 13.3 ± 3.3 µg/mL (≈ 30.5 µM); MIC [6, 12]: 32 to 64 µg/mL (≈ 73.5 to 147 µM); MIC [6, 13]: 48 µg/mL (≈ 110 µM); Selectivity index (CC50/IC50) (S. aureus 8810): 8.9; IC50 (S. aureus 8810; S. aureus): 5.9 ± 1.2 µg/mL (≈ 13.5 µM); MIC (S. aureus 8810; [14]): 32 µg/mL (≈ 73.5 µM); MIC (S. aureus 8810; [15]): 32 µg/mL (≈ 73.5 µM); CC50 at 24 h (in vitro): 52.8 µg/mL (≈ 121 µM) |
| CN(CC[C@H](N)CC(=O)N[C@H]1C=C[C@H](n2ccc(N)nc2=O)O[C@@H]1C(=O)NCCc1ccccc1)C(=N)N [Compound 22] | 3.5 | 16.5 ± 2.1 µg/mL (≈ 31.4 µM) | 32 µg/mL (≈ 60.9 µM) | 32 µg/mL (≈ 60.9 µM) | 11.1 ± 0.8 µg/mL (≈ 21.1 µM) | 5.2 | 36.9 ± 4.7 µg/mL (≈ 70.2 µM) | 256 µg/mL (≈ 487 µM) | 1.6 | 8 µg/mL (≈ 15.2 µM) | 6.1 ± 2.6 µg/mL (≈ 11.6 µM) | 8 µg/mL (≈ 15.2 µM) | 9.6 | 3.0 | 19.3 ± 0.2 µg/mL (≈ 36.7 µM) | 128 µg/mL (≈ 244 µM) | 183 ± 19 µg/mL (≈ 348 µM) | > 256 µg/mL | 0.3 | 15 | MIC (Pseudomonas aeruginosa; [7]): 64 µg/mL (≈ 122 µM); increase in potency compared to 1 ([1]; VRE, MIC): 8 fold; increase in potency compared to 1 ([6]; MRSA, MIC): 16 to 32 fold; better activity than the phenethyl ester of the previous study ([6]; MRSA, ester data ref 8): 4- to 8 fold; IC50 ([6]; MRSA): 4 ± 0.3 µg/mL (≈ 7.61 µM); MIC [6, 12]: 8 to 16 µg/mL (≈ 15.2 to 30.4 µM); MIC [6, 13]: 12 µg/mL (≈ 22.8 µM); Selectivity index (CC50/IC50) (S. aureus 8810): 15; better activity than the phenethyl ester of the previous study (S. aureus 8810; S. aureus, ester data ref 8): 4- to 8 fold; IC50 (S. aureus 8810; S. aureus): 3.8 ± 0.2 µg/mL (≈ 7.23 µM); MIC (S. aureus 8810; [14]): 16 µg/mL (≈ 30.4 µM); MIC (S. aureus 8810; [15]): 12 µg/mL (≈ 22.8 µM); CC50 at 24 h (in vitro): 58.4 µg/mL (≈ 111 µM) |
